# From patent publication US20250197438A1, “IMMUNOREGULATORY AMIDE DERIVATIVE WITH IMPROVED MATERIAL PROPERTIES” (AEVIS BIO, INC., priority 2021, published 2025)
# “Also recorded” adds a separate entry of the source.
# What was measured:
# [1] = Water solubility, stepwise addition of water, classed by USP23; format: physicochemical
# Method: 3 mg of lenalidomide (Combi-Block, Inc. San Diego, CA, USA) and ribose-lenalidomide were each weighed and placed in a 1.5 mL Eppendorf tube, 0.03 mL of water was added thereto, and then the mixture was vortexed for one minute and then centrifuged at 15,000 rpm for 1 minute, and an undissolved compound was precipitated. When the precipitated compound was visible, 0.03 mL of water was added, and the above process was repeated.
# The solubility was determined by Table 1 as defined in United States Pharmacopeia 23 (USP23).
# [2] = test system: multiple myeloma; conditions: combination of lenalidomide and dexamethasone; cited from earlier work
# [3] = test system: MM.1S cells; assay: Tumor cell killing effect, CCK analysis; format: cell-based, human; conditions: 0 to 10 μM, 3 days, dissolved in DMSO or D.W.
# Method: To this end, a human multiple myeloma cell line, MM.1S (CRL-2974), was purchased from the American Type Culture Collection (ATCC, Manassas, VA, USA), and incubated using a RPMI1640 medium (Corning, MD, USA) supplemented with a 10% bovine fetal serum (Corning, MD, USA), 100 U/mL penicillin (Corning, MD, USA), and 100 μg/mL streptomycin (Corning, MD, USA) at 37° C. in a 5% CO2 incubator for 24 hours. The cells were seeded at 1×10^4 cells/well in a 96-well plate, incubated for 24 hours, further incubated for 3 days after treatment with 0, 0.005, 0.014, 0.041, 0.123, 0.37, 1.111, 3.333, or 10 μM of ribose-lenalidomide dissolved in DMSO or D.W., and then analyzed using a CCK analysis kit (Dojindo, Japan) according to the manufacturer's instructions.
# [4] = molecular target: T1, SALL4 (Homo sapiens, UniProt Q96SW2+Q9UJQ4); assay: SALL4 degradation in Tera-1 cell line (HTB-105), western blot; format: cell-based; conditions: 1 or 10 μM, compared with the base compound
# T1 construct: endogenous in cells; host or cells: Tera-1 (ATCC HTB-105)
# Method: The cell extract was loaded at the same amount, separated using SDS-PAGE, and transferred to a PVDF membrane. The protein-transferred membrane was blocked using skim milk, subjected to o/n incubation with a primary antibody at 4° C., and incubated with an HRP-attached secondary antibody at 4° C. for 1 hour. The cells were washed with TBS-T three times between steps. Detection was performed by applying a chemiluminescence reagent (Thermo Fisher Scientific), and confirmation was performed using Chemidoc (iBright CL1000, Invitrogen, CA, USA).
# [5] = test system: choroidal neovascularization lesion; assay: Macular degeneration treatment effect, laser-induced mouse CNV model (wet AMD); format: in vivo; conditions: for CNV lesion, intravitreal administration: once immediately after laser irradiation, fluorescent staining of blood vessels
# Method: It was intended to confirm the healing efficacy of a lesion in a mouse CNV model, which is a wet senile macular degeneration (wet AMD) model.
# To this end, five C57BL/6 (Koatech, Korea) male mice (aged 7 weeks) were used, and after 1 week of acclimation, the 8-week-old mice were anesthetized using ketamine hydrochloride (100 mg/kg, I.P.), and a drop of Mydriacyl (tropicamide) eye drops was placed on the right eye to induce mydriasis. After 3 minutes, the mouse was placed on a stand attached to a slit lamp, and a coverslip was put on the right eye to serve as a contact lens. After illuminating the optic nerve head using the slip lamp, four laser spots (200 mW, 50 μm spot size, 100-ms duration) around the optic nerve head were irradiated using a 532 nm laser device (Irdiex Oculight Tx, USA) attached to the slit lamp.
# After forming a choroidal neovascularization lesion as described above, a solution prepared by dissolving ribose-lenalidomide in PBS was administered to the lesion. For intravitreal administration, 1.5 μL of the solution with a concentration of 0.2 μg/mL was administered once immediately after laser irradiation using a 25 μL Hamilton syringe with a 33G needle. Meanwhile, ribose-lenalidomide was dissolved in PBS to have a concentration of 2 mg/mL, prepared in the form of eye drops, administered four times a day, and then 7 days or 14 days after administration, efficacy was confirmed through fluorescent staining of blood vessels.
# Fluorescent staining was performed using Heidelberg Spectralis HRA+OCT device (Heidelberg, Germany) equipment, the mouse was anesthetized using ketamine hydrochloride (100 mg/kg, I.P.) and xylazine (10 mg/kg, I.P.), a drop of Mydriacyl (tropicamide) eye drops was placed on the right eye to induce mydriasis, 0.05 mL of 10% fluorescite (Alcon, USA) was administered via I.P. administration to stain blood vessels. Fluorescent images were taken 10 minutes after fluorescite injection.
# [6] = molecular target: T2, Aiolos (Homo sapiens, UniProt Q96SW2+Q9UKT9); assay: Aiolos degradation in MM.1S cells, western blot; format: cell-based; conditions: 1 μM or 10 μM, 24 hours
# T2 construct: endogenous in cells; host or cells: MM.1S (ATCC CRL-2974)
# Method: (§1) It is known that a thalidomide-based compound binds to an E3 ligase, cereblon (CRBN), and decomposes transcription factors Aiolos and Ikaros as substrates, thereby regulating the function of immune cells. Therefore, to confirm whether ribose-lenalidomide still maintains its immunomodulatory function, the Aiolos and Ikaros degradation effect was compared with its base, lenalidomide.
# (§2) After seeding the cells and incubating the cells for 24 hours, each compound was further incubated for 24 hours after treatment with 1 μM or 10 μM of each compound. The cells were lysed in a RIPA buffer containing a protease inhibitor cocktail (Thermo Fisher Scientific) and centrifuged at 14,000 rpm for 15 minutes at 4° C., thereby obtaining a cell extract. The cell extract was loaded at the same amount, separated using SDS-PAGE, and transferred to a PVDF membrane. The protein-transferred membrane was blocked using skim milk, subjected to o/n incubation with a primary antibody at 4° C., and incubated with an HRP-attached secondary antibody at 4° C. for 1 hour. The cells were washed with TBS-T three times between steps. Detection was performed by applying a chemiluminescence reagent (Thermo Fisher Scientific), and confirmation was performed using Chemidoc (iBright CL1000, Invitrogen, CA, USA).
# [7] = molecular target: T3, CK1α (Homo sapiens, UniProt P48729+Q96SW2); assay: CK1α degradation in MM.1S cells, western blot; format: cell-based; conditions: 1 μM or 10 μM, 24 hours
# T3 construct: endogenous in cells; host or cells: MM.1S (ATCC CRL-2974)
# Method: as §2
# [8] = molecular target: T4, cereblon (CRBN) protein (Homo sapiens, UniProt Q96SW2); assay: CRBN binding affinity, Alpha assay of competitive inhibition of CRBN-dBET1 binding; conditions: compared with the base lenalidomide or pomalidomide
# T4 construct: FLAG; purchased BPS Bioscience #79770
# From the text: An immunomodulatory amide-type compound such as lenalidomide is known to act by binding to the cereblon (CRBN) protein. Therefore, the binding affinity of ribose-lenalidomide for the cereblon (CRBN) protein was compared with that of its base, lenalidomide (Combi-Block, Inc. San Diego, CA, USA), for the cereblon (CRBN) protein.
# [9] = molecular target: T5, Ikaros (Homo sapiens, UniProt Q13422+Q96SW2); assay: Ikaros degradation in MM.1S cells, western blot; format: cell-based; conditions: 1 μM or 10 μM, 24 hours
# T5 construct: endogenous in cells; host or cells: MM.1S (ATCC CRL-2974)
# Method: as §1, §2
smiles,measurement,setting,value
"Nc1cccc2c1CN(C1CCC(=O)NC1=O)C2=O (racemic) [lenalidomide, (RS)-3-(4-amino-1-oxo-1,3-dihydro-2H-isoindol-2-yl)piperidine-2,6-dione, reference compound]",water solubility in words,[1]; D.W.,completely insoluble in water; also recorded: barely dissolved in D.W
same,disease-free survival period,[2],13.4 months
same,overall survival period,[2],38 months
O=C1CCC(N2C(=O)c3cccc(NC[C@H](O)[C@@H](O)[C@H](O)[C@H](O)CO)c3C2=O)C(=O)N1 (stereo partly drawn) [glucose-pomalidomide (type 2)],tumor cell killing effect / viability of MM.1S cells,[3],not significantly reduced
O=C1CCC(N2Cc3c(/N=C/[C@H](O)[C@H](O)[C@H](O)CO)cccc3C2=O)C(=O)N1 (stereo partly drawn) [ribose-lenalidomide (type 1)],SALL4 degradation effect (teratogenic side effect),[4],inhibited SALL4 degradation effect compared to lenalidomide
same,"CNV lesion, eye drop administration","[5]; eye drops 2 mg/mL in PBS, four times a day, 7 or 14 days",distinct decrease in the lesion
same,"CNV lesion, intravitreal administration",[5],distinct decrease in the lesion
same,solubility term based on USP 23,[1]; water,freely soluble
same,solubility at 1 min,"[1]; water, thermodynamic from solid, D.W., no visible precipitate after vortexing and centrifugation",≥ 100 mg/mL
same,Aiolos degradation effect,[6],almost similar to lenalidomide
same,CK1α degradation effect,[7],almost similar to lenalidomide
same,CRBN binding affinity,[8],improved binding affinity
same,tumor cell killing effect / viability of MM.1S cells,[3],effective in killing MM.1S cells
same,Ikaros degradation effect,[9],almost similar to lenalidomide
O=C1CCC(N2Cc3c(/N=C/[C@H](O)[C@@H](O)[C@H](O)[C@H](O)CO)cccc3C2=O)C(=O)N1 (stereo partly drawn) [glucose-lenalidomide (type 1)],"CNV lesion, intravitreal administration",[5],macular degeneration treatment effect was confirmed
